Several values for one entry are separate records, joined by “and”; a condition that tells them apart may be missing. Equal values may be shown once. Inconclusive results and toxic doses are left out. Rule for the calls: active = survival T/C of 150% or more; inactive = T/C below 125% in these data.
System: P388 leukemia ip, CD2F1 mice, survival T/C
Assay: NCI In Vivo Anticancer Drug Screen. Data for tumor model P388 Leukemia (intraperitoneal) in CD2F1 (CDF1) mice
Settings: endpoint: median survival time, higher = longer survival
Summary of the method: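 Mice carrying the transplanted tumor received test compound or vehicle. Survival was recorded in each group, and the value is the treated-group measurement divided by that of the vehicle-treated control group.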

[1] = dose: 12.5 mg/kg/injection, schedule: Q01DX009 (ip), vehicle: saline
[2] = dose: 100.0 mg/kg/injection, schedule: Q01DX001 (ip), vehicle: saline with Tween-80
[3] = dose: 12.5 mg/kg/injection, schedule: Q01DX009 (ip), vehicle: saline with Tween-80
[4] = dose: 25.0 mg/kg/injection, schedule: Q01DX009 (ip), vehicle: saline with Tween-80
[5] = dose: 50.0 mg/kg/injection, schedule: Q01DX009 (ip), vehicle: saline with Tween-80
[6] = dose: 50.0 mg/kg/injection, schedule: Q01DX009 (ip), vehicle: saline
[7] = dose: 100.0 mg/kg/injection, schedule: Q01DX009 (ip), vehicle: saline with Tween-80
[8] = dose: 100.0 mg/kg/injection, schedule: Q01DX009 (ip), vehicle: saline
[9] = dose: 60.0 mg/kg/injection, schedule: Q01DX005 (ip), vehicle: saline with Tween-80
[10] = dose: 120.0 mg/kg/injection, schedule: Q01DX005 (ip), vehicle: saline with Tween-80
[11] = dose: 240.0 mg/kg/injection, schedule: Q01DX005 (ip), vehicle: saline with Tween-80
[12] = dose: 200.0 mg/kg/injection, schedule: Q01DX009 (ip), vehicle: saline with Tween-80
[13] = dose: 200.0 mg/kg/injection, schedule: Q01DX009 (ip), vehicle: saline
[14] = dose: 50.0 mg/kg/injection, schedule: Q01DX005 (ip), vehicle: saline with Tween-80
[15] = dose: 100.0 mg/kg/injection, schedule: Q01DX005 (ip), vehicle: saline with Tween-80

Measured: T/C

c1ccc2c(c1)Oc1cccc3cccc-2c13
inactive: dose: 50.0 mg/kg/injection, schedule: Q01DX005 (ip), vehicle: Klucel (hydroxypropylcellulose) (HPC) 97 % of control | dose: 100.0 mg/kg/injection, schedule: Q01DX005 (ip), vehicle: Klucel (hydroxypropylcellulose) (HPC) 101 % of control | dose: 200.0 mg/kg/injection, schedule: Q01DX005 (ip), vehicle: Klucel (hydroxypropylcellulose) (HPC) 101 % of control

COC(=O)C1=C(C(=O)OC)[C]([Hg][CH3])(C(C)=O)N=N1 (stereo unspecified)
inactive: dose: 1.56 mg/kg/injection, schedule: Q01DX009 (ip), vehicle: saline 88 % of control | dose: 3.12 mg/kg/injection, schedule: Q01DX009 (ip), vehicle: saline 88 % of control | dose: 6.25 mg/kg/injection, schedule: Q01DX009 (ip), vehicle: saline 93 % of control | [1] 106 % of control

Cc1cc2nc(C(C)(C)F)c(=O)[nH]c2cc1C
inactive: [2] 102 % of control | dose: 200.0 mg/kg/injection, schedule: Q01DX001 (ip), vehicle: saline with Tween-80 94 % of control | dose: 400.0 mg/kg/injection, schedule: Q01DX001 (ip), vehicle: saline with Tween-80 96 % of control

CN1C(=O)N(C)C2(C#N)CC2([N+](=O)[O-])C1=O (stereo unspecified)
inactive: [3] 89 % of control | [4] 90 % of control

Cc1cc(Br)c(OC(=O)Nc2cccc(Cl)c2Cl)cc1C
inactive: [1] 88 % of control | dose: 25.0 mg/kg/injection, schedule: Q01DX009 (ip), vehicle: saline 99 % of control | [5] 88 % of control | [6] 119 % of control | [7] 114 % of control

CCNCc1c(C)[nH]c2ccc(N(C)C)cc2c1=O
inactive: [6] 92 % of control | [8] 108 % of control

CCN(CC)Cc1cc(C)c(O)c(N=Nc2ccc([N+](=O)[O-])cc2)c1C
inactive: dose: 100.0 mg/kg/injection, schedule: Q04DX002 (ip), vehicle: saline with Tween-80 101 % of control | dose: 200.0 mg/kg/injection, schedule: Q04DX002 (ip), vehicle: saline with Tween-80 99 % of control | dose: 400.0 mg/kg/injection, schedule: Q04DX002 (ip), vehicle: saline with Tween-80 97 % of control

Cc1ccc([N+](=O)[O-])cc1NC(=O)Nc1onc(C)c1C
inactive: [9] 87 % of control | [10] 93 % of control | [11] 88 % of control

NNC(=O)c1ccc(OCc2nc3ccccc3[nH]2)cc1
inactive: dose: 3.12 mg/kg/injection, schedule: Q01DX005 (ip), vehicle: saline with Tween-80 100 % of control | dose: 6.25 mg/kg/injection, schedule: Q01DX005 (ip), vehicle: saline with Tween-80 100 % of control | dose: 12.5 mg/kg/injection, schedule: Q01DX005 (ip), vehicle: saline with Tween-80 98 % of control | dose: 25.0 mg/kg/injection, schedule: Q01DX005 (ip), vehicle: saline with Tween-80 94 % of control

O=C1CCC(=O)N1CNCCc1cc(Cl)cc(Cl)c1O
inactive: [5] 102 % of control | [7] 103 % of control | [12] 94 % of control

O=[N+]([O-])c1ccc(NN=C(CO)CO)c([N+](=O)[O-])c1
inactive: dose: 50.0 mg/kg/injection, schedule: Q01DX009 (ip), vehicle: suspension in saline 98 % of control | dose: 100.0 mg/kg/injection, schedule: Q01DX009 (ip), vehicle: suspension in saline 98 % of control | dose: 200.0 mg/kg/injection, schedule: Q01DX009 (ip), vehicle: suspension in saline 97 % of control | dose: 400.0 mg/kg/injection, schedule: Q01DX009 (ip), vehicle: suspension in saline 97 % of control

COc1cc(OC)cc(C2OC3=C(Nc4ccc([N+](=O)[O-])cc4N3)C2=O)c1 (stereo unspecified)
inactive: dose: 60.0 mg/kg/injection, schedule: Q01DX005 (ip), vehicle: Klucel (hydroxypropylcellulose) (HPC) 90 % of control | dose: 120.0 mg/kg/injection, schedule: Q01DX005 (ip), vehicle: Klucel (hydroxypropylcellulose) (HPC) 90 % of control | dose: 240.0 mg/kg/injection, schedule: Q01DX005 (ip), vehicle: Klucel (hydroxypropylcellulose) (HPC) 90 % of control

Oc1ccc(C2c3ccccc3Oc3ccccc32)c2ccccc12
inactive: dose: 100.0 mg/kg/injection, schedule: Q01DX001 (ip), vehicle: gum acacia 93 % of control | dose: 200.0 mg/kg/injection, schedule: Q01DX001 (ip), vehicle: gum acacia 105 % of control | dose: 400.0 mg/kg/injection, schedule: Q01DX001 (ip), vehicle: gum acacia 101 % of control

COC(=O)C1=C(C(=O)OC)C2(C)OC1c1ccccc12 (stereo unspecified)
inactive: dose: 15.0 mg/kg/injection, schedule: Q01DX005 (ip), vehicle: saline with Tween-80 106 % of control | dose: 30.0 mg/kg/injection, schedule: Q01DX005 (ip), vehicle: saline with Tween-80 106 % of control | [9] 100 % of control and 102 % of control

CC(N)CN1C=NC(C)C1 (stereo unspecified)
inactive: [6] 97 % of control | [8] 103 % of control | [13] 94 % of control

C=C(C)C(=O)N(CC)CC
inactive: [8] 97 % of control | [13] 102 % of control

COC(=N)CCNC(=O)C(O)C(O)C(=O)NCCC(=N)OC (stereo unspecified)
inactive: [6] 102 % of control | [8] 89 % of control | [13] 105 % of control

O=S1CCCS(=O)C1c1ccccc1 (stereo unspecified)
inactive: [9] 100 % of control | [10] 91 % of control | [11] 97 % of control

CCN(CC)CCOC(C)(C#CC(C)(O)CC)CC (stereo unspecified)
inactive: [14] 100 % of control | [15] 106 % of control

CCCCCCCCCC(C)CCCCC (stereo unspecified)
inactive: dose: 25.0 mg/kg/injection, schedule: Q01DX001 (ip), vehicle: saline with Tween-80 90 % of control | dose: 50.0 mg/kg/injection, schedule: Q01DX001 (ip), vehicle: saline with Tween-80 100 % of control | [2] 100 % of control

CCOc1c(N=Nc2ccccc2Cl)c(C)nn1C(=S)S
inactive: dose: 15.0 mg/kg/injection, schedule: Q01DX005 (ip), vehicle: Klucel + Tween-80 95 % of control | dose: 30.0 mg/kg/injection, schedule: Q01DX005 (ip), vehicle: Klucel + Tween-80 100 % of control | dose: 60.0 mg/kg/injection, schedule: Q01DX005 (ip), vehicle: Klucel + Tween-80 96 % of control

O=C(/C=C/c1ccc(Cl)c(Cl)c1)c1ccccc1
inactive: [12] 100 % of control

CCCCCCCC(=O)O[C@H]1[C@H]2[C@@H](CC1(C)C)C(=O)[C@]13O[C@H]1C(=O)[C@]1(CO1)[C@]23C
inactive: dose: 2.2 mg/kg/injection, schedule: Q01DX009 (ip), vehicle: saline with Tween-80 118 % of control | dose: 5.0 mg/kg/injection, schedule: Q01DX009 (ip), vehicle: saline with Tween-80 104 % of control and 122 % of control | dose: 7.5 mg/kg/injection, schedule: Q01DX009 (ip), vehicle: saline with Tween-80 118 % of control | dose: 10.0 mg/kg/injection, schedule: Q01DX009 (ip), vehicle: saline with Tween-80 95 % of control | dose: 10.0 mg/kg/injection, schedule: Q01DX009 (ip), vehicle: saline 105 % of control

NP(=O)(Oc1c2occc2cc2ccc(=O)oc12)N(CCCl)CCCl (stereo unspecified)
inactive: [14] 111 % of control | [15] 99 % of control | dose: 200.0 mg/kg/injection, schedule: Q01DX005 (ip), vehicle: saline with Tween-80 114 % of control

CC(=O)NC(=S)Nc1cccs1
inactive: [3] 99 % of control | [4] 103 % of control | [5] 95 % of control
